# Test results taken from patent US20080221110A1 (priority 2005, published 2008).
# System: a strain of at least one of the organisms listed (panel of Gram-positive organisms and Gram-negative strains)
# Assay: organism not typed
# Type: cell-based
# Conditions: read-out: MIC (minimum inhibitory concentration)
structure (smiles),measurement,value
"O=c1ccc2ccc(F)c3c2n1CC3CN1CCC(NC[C@H]2COc3ccnnc3O2)CC1 (mixture of isomers) [Example 62, (1R/S)-1-[(4-{[(7S)-6,7-dihydro[1,4]dioxino[2,3-c]pyridazin-7-ylmethyl]amino}-1-piperidinyl)methyl]-9-fluoro-1,2-dihydro-4H-pyrrolo[3,2,1-ij]quinolin-4-one]",MIC,≤ 4 µg/mL
